# Laboratory results published in patent US10766866B2, “Deterrents for arthropods and marine organisms” (priority 2017, dated 2020).
# Where two headings read alike, the source gives them in different places.
# Tests used:
# [1] = system: IsTOctR (Ixodes octopamine receptor), cloned α-like OctR; assay: OctR activation: change in intracellular calcium (CALCIUM 6QR dye, FlexStation 3) in stably transfected mammalian cells; assay type: cell-based, Ixodes scapularis
# From the text: (§1) Functional expression of cloned arthropod OctRs and human α2-ARs: The cDNAs for α-like OctRs from different arthropod species (e.g., Anopheles gambiae, Aedes aegypti, Periplaneta americana, Drosophila melanogaster, Ixodes scapularis, Balanus improvises) and for α2-AR subtypes from humans were individually subcloned into mammalian expression vectors. These plasmids, which harbor a resistance gene for the selection drug G418 and the cDNA sequence for the receptor of interest, were individually transfected into mammalian cells using a calcium phosphate precipitation method. G418 selection was then employed to generated stable clonal cell lines. Utilizing rapid filtration radioligand binding techniques, the cell surface density of receptor expression of the individual clonal cell lines was determined at equilibrium and those with similar high levels of expression were selected for further experiments. Briefly, binding conditions were 50 mM Tris binding buffer pH 7.4 at 25° C. and an ice-cold wash buffer 10 mM Tris-HCl, pH 7.4). The radioligand was [3H]rauwolscine and non-specific binding was determined in the presence of 10 μM atipamezole. Following the addition of membranes prepared from the clonal cell lines, samples were mixed and allowed 2 hr. to reach equilibrium before rapid filtration and washing through 0.3% PEI-treated GF/C filters. The radioactivity remaining on the filters was quantified by scintillation counting. Receptor density (Bmax) was back calculated knowing the specific activity of the radioligand and applying the equation for a square hyperbola model: Bmax=(Y·(KD+X))/X, where Y is [specifically bound radioligand] and X=[radio ligand concentration]. The affinity (KD) for the radioligand for each receptor was determined in separate saturation isotherm binding experiments using the same binding conditions as describe above.
# (§2) Measurement of OctR activation by measuring changes in intracellular calcium: Activation of arthropod α-like OctRs increases intracellular calcium via a Gq-coupling mechanism. This involves activation of phospholipase C leading to an increase in intracellular inositol triphosphate (IP3) which then activates IP3-gated calcium channels in the endoplasmic reticulum causing a transient rise in intracellular calcium. These changes in intracellular calcium upon OctR activation were measured by loading cells with intracellular calcium sensitive dye CALCIUM 6QR and reading the change in calcium-induced fluorescent signal over time on a FlexStation 3 microplate reader.
# [2] = molecular target: T1, AgAOctR (Anopheles octopamine receptor isoform A), cloned α-like OctR (Anopheles gambiae, UniProt Q7PRZ8); assay: as above; assay type: cell-based; details: agonist
# T1 construct: Gq calcium readout
# T1 sequence (Q7PRZ8 1-592): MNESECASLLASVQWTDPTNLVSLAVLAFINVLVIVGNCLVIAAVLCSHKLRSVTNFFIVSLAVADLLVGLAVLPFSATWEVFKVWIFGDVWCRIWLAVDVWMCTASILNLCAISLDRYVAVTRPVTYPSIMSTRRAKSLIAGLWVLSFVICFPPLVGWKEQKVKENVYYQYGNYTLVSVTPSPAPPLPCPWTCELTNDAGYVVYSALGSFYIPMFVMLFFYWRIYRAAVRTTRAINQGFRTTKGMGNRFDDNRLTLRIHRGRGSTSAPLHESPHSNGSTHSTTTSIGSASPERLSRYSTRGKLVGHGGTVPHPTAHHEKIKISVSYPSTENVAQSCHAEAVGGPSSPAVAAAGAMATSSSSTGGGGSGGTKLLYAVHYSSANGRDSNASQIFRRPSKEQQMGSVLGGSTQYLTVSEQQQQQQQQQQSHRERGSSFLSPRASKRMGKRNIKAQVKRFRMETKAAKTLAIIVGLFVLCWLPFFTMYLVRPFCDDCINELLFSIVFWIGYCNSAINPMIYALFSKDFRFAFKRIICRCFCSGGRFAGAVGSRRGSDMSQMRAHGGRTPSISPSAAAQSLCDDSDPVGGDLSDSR
# From the text: as §1, §2
# [3] = system: Anopheles gambiae mosquito isoform A OctR (AgAOctR); assay: OctR activation, change in intracellular calcium; assay type: cell-based
# From the text: as §1, §2
# [4] = system: Aedes mosquito; assay: Protection against mosquito biting and toxicity to mosquitoes; assay type: in vivo; details: DEET: at the lowest concentration that produces maximal protection against biting (LC50)
# [5] = system: Aedes aegypti α-like OctR (AeOctR); assay: OctR activation, change in intracellular calcium; assay type: cell-based; details: 100 μM; normalized to octopamine at a supersaturating concentration; FIG. 1B
# From the text: as §1, §2
# [6] = molecular target: T2, Drosophila melanogaster α-like OctR (DmOctR) (Drosophila melanogaster, UniProt Q7JQF1); assay: OctR activation, change in intracellular calcium; assay type: cell-based; details: 100 μM; normalized to octopamine at a supersaturating concentration; FIG. 1A
# T2 construct: expressed in transfected cells
# T2 sequence (Q7JQF1 1-645): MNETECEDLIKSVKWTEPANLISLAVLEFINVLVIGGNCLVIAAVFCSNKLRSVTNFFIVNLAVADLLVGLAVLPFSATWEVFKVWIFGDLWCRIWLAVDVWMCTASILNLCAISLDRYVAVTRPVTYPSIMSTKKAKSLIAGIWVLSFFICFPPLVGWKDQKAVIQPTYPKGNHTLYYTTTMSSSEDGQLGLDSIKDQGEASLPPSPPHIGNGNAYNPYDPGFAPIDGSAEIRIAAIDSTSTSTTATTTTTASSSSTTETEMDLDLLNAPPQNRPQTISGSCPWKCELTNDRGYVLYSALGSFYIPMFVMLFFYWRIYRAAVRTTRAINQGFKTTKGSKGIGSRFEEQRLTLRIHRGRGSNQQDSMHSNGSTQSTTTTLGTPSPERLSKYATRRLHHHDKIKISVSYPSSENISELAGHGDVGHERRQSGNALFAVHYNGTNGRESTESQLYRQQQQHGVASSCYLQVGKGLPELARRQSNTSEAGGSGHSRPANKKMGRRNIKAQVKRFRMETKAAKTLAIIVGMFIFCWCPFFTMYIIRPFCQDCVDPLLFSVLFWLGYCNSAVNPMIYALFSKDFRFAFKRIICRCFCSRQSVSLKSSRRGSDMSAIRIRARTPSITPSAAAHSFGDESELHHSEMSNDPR
# From the text: as §1, §2
# [7] = system: Periplaneta americana OctR (PaOctR); assay: OctR activation, change in intracellular calcium; assay type: cell-based; details: 100 μM; normalized to octopamine at a supersaturating concentration; FIG. 1D
# From the text: as §1, §2
# [8] = system: Ixodes scapularis tick OctR (IsTOctR); assay: OctR activation, change in intracellular calcium; assay type: cell-based; details: 100 μM; normalized to octopamine at a supersaturating concentration; FIG. 1C
# From the text: as §1, §2
# [9] = system: Balanus OctR (BiOctR); assay: OctR activation, change in intracellular calcium; assay type: cell-based, Balanus improvises; details: 100 μM; compared with octopamine
# From the text: as §1, with “Briefly, binding conditions were 50 mM Tris binding buffer pH 7.4 at 25° C. and an ice-cold wash buffer 10 mM Tris-HCl, pH 7.4).” left out, “Following the addition of membranes prepared from the clonal cell lines, samples were mixed and allowed 2 hr. to reach equilibrium before rapid filtration and washing through 0.3% PEI-treated GF/C filters.” left out, “The affinity (KD) for the radioligand for each receptor was determined in separate saturation isotherm binding experiments using the same binding conditions as describe above.” left out
Structure (SMILES),EC50 [2] [µM],agonist response (change in intracellular calcium) relative to octopamine [5],agonist response (change in intracellular calcium) relative to octopamine [6],agonist response (change in intracellular calcium) relative to octopamine [7],agonist response (change in intracellular calcium) relative to octopamine [8],further results
C=C(c1cnc[nH]1)c1cccc(C(F)(F)F)c1C [AZ1415],0.00058 ± 0.00061,–,–,–,–,"EC50 ([1]; agonist, read-out: IsTOctR (Ixodes octopamine receptor) EC50): 0.018 ± 0.0069 µM; selectivity Ki(Hsα2-AR)/EC50(OctR) ([3]; AgAOctR over Homo sapien α2-AR subtypes): highly selective; efficacy (full/partial agonist) ([3]; in words, FIGS. 9-12): full efficacy; potency (EC50) ([3]; in words, FIGS. 9-12): high potency"
C/C=C(/c1cnc[nH]1)c1cccc(C)c1C [AZ1440 E-isomer],0.01 ± 0.0047,–,–,–,–,"EC50 ([1]; read-out: IsTOctR (Ixodes octopamine receptor) EC50, agonist): 0.09 ± 0.025 µM"
"CCN(CC)C(=O)c1cccc(C)c1 [DEET, N,N-diethyl-meta-toluamide]",–,did not produce a significant agonist response,did not produce a significant agonist response,did not produce a significant agonist response,did not produce a significant agonist response,toxicity to mosquitoes [4]: lethal in half the mosquitoes
"CCCCN(CCC(=O)OCC)C(C)=O [IR3535, ethyl butylacetylaminopropionate]",–,did not produce a significant agonist response,did not produce a significant agonist response,did not produce a significant agonist response,did not produce a significant agonist response,–
"CC1CCC(C(C)(C)O)C(O)C1 (centres unmarked) [PMD, para-menthane-3,8-diol]",–,< 25%,< 25%,–,–,–
"CCC(C)OC(=O)N1CCCCC1CCO (centres unmarked) [picaridin, 1-(1-methylpropoxycarbonyl)-2-(2-hydroxyethyl)piperidine]",–,did not produce a significant agonist response,did not produce a significant agonist response,did not produce a significant agonist response,did not produce a significant agonist response,agonist response (change in intracellular calcium) relative to octopamine [9]: significant agonist responses
